For data set [1], the system named is LPS-induced acute lung injury mice. As to the kind of experiment: LPS-induced ALI in mouse model. Format: in vivo. The method, then:
Mice were slightly anesthetized by isoflurane inhalation (Abbott Laboratory), and were maintained in a supine position with the head raised. LPS (Escherichia coli, 0111: B4, Sigma) (10 mg/kg) in 50 μL PBS was administered by intranasal (i.n.) inhalation. As the control group, 50 μL sterile PBS was intranasally provided. With the aid of a microsyringe from Hamilton, the administration solution was gradually released into the nostrils. In case of the pretreatment model, F56 (10 mg/kg) in 50 μL DMSO was intraperitoneally (i.p) administered before 1 hour of LPS inhalation. In case of the post-treatment model, two doses of F56 were administered at 6 hours and 12 hours after LPS inhalation. The mice of the pretreatment group were euthanized and in 48 hours after LPS inhalation, the lung was harvested. In the post-treatment model, euthanasia and sample collection occurred 24 hours after LPS administration. For SCN^− experiment, after F56 treatment, […]
All mice were euthanized with fetal excessive amount of ketamine and xylazine. BALF was obtained by tracheal cannula using 1 mL sterile saline solution. BALF was centrifuged (4° C., 3000 rpm, 10 minutes) and the supernatant was stored at −80° C. for an additional analysis. The cell pellet was recomposed in 100 μL PBS, and used for the number of cells and cytospin sample. The total number of cells of each sample was determined using a hemocytometer (Marienfield), according to the manufacturer's protocol. Each sample in a 90 μL split amount was transferred to a slide chamber, and then the slide was inserted into the cytospin with outward facing. The slide was centrifuged at 800 rpm for 5 minutes, and then removed from the cell centrifuge, and dried before staining. The cytospin was prepared with a cell centrifuge (Shandon Cytospin 4 cytocentrifuge, Thermo Scientific, Waltham, MA, USA) and stained with Diff-Quik Stain Set (Dade Behring, Newark, DE, USA) to evaluate inflammation. The protein concentration of BAL supernatant was measured using BCA analysis (Thermo Fischer Scientific). 2 microliters of each sample and 198 μL of a working reagent were pipetted in a microplate well and completely mixed in a plate shaker for […]. After culturing at 37° C. for 30 minutes, the plate was cooled and the absorbance was read at 562 nm in a spectrophotometer.
The right lung was isolated and the pulmonary vasculature structure was flushed with saline solution under low pressure and stored at −80° C. before protein extraction. The left lung was inflated via tracheostomy with low-meting agarose (4%) in PBS at 25 cm H2O pressure until the pleural margin was sharpened. Then, the lung was excised and fixed overnight in 10% formaldehyde in PBS and embedded in paraffin for 5 μm sections. The left lung section was stained with H&E and subjectively evaluated with an optical microscope. Histopathology was reviewed in a blind method by two qualified researchers. Five easily identifiable pathological processes were scored using the weighted scale presented in the official ATS workshop report. Lung sections were processed using anti-rabbit SLC26A4 (ab98091, abcam) antibody for immunohistochemistry.
In the lung lysates, the level of macrophage inflammatory protein (MIP-2), interleukin-1β (IL-1β […] and tumor necrosis factor α (TNF-α) was measured using an ELISA kit (Millipore), according to the manufacturer's instructions.
The lung tissue was harvested and dissolved in a homogenization buffer (PRO-PREP™ extraction solution, iNtRON Biotechnology). The sample was centrifuged at 4° C. for 30 minutes at 13000 g. The supernatant protein concentration was determined by BCA analysis (Thermo Fisher Scientific). The same amount of protein was separated by SDS/PAGE and transferred to a nitrocellulose membrane. […]

The target in a further data set is T1, SLC26A9 (Homo sapiens, UniProt Q7LBE3).
T1 construct: expressed in transfected cells; host or cells: CHO-K1
As to the kind of experiment: Cl^−/HCO3^− exchange in CHO-K1 cells expressing SLC26A9. Format: cell-based. As to the method: (§1) (A) The inhibition of mouse pendrin (mPDS)-mediated Cl^−/I^− exchange activity by F56 was measured in CHO-K1 cells (mean±S.E., n=5). The indicated concentration of F56 was pretreated for 10 minutes. (B) Summary of dose-response for inhibition of the human pendrin (hPDS)-mediated (closed circle, FIG. (a), C) and mPDS-mediated (open circle) Cl^−/I^− exchange activity. (C-F) Representative traces of intracellular pH in CHO-K1 cells expressing SLC26A3, SLC26A6, SLC26A7 and SLC26A9 were shown. The application of Cl^− free solution induced intracellular alkalization by Cl^−/HCO3^− exchange. The indicated concentration of F56 was pretreated for 10 minutes. (G) the effect of F56 (100 μM) on the CFTR chloride channel activity was measured in FRT cells expressing human CFTR. The CFTR current was activated by 20 μM forskolin and was inhibited by 10 μM CFTRinh-172. (H) The effect of F56 (100 μM) on the AN01 chloride channel activity was measured in FRT cells expressing human AN01. Before 10 minutes prior to AN01 activation by 100 μM ATP, F56 was added. (Right) Peak current summary (mean±S.E., n=3). (I) The effect of F56 on the hERG (Kv11.1) potassium channel activity was measured in HEK293T cells expressing human Kv11.1 (mean±S.E., n=4). […] (J) The effect of F56 on the 5-HT2A channel activity was measured in FRT cells expressing human 5-HT2A (mean±S.E., n=4). […]

A further data set has as its system HNE cells. Kind of data set: ASL and fluid meniscus volume measurement in HNE cells. Format: cell-based, human. The method, then: The total volume of ASL and fluid meniscus, which is fluid with the cell culture insert wall, was measured by fluid absorption through filter paper. Whatman filter paper (10 mm diameter circle; GE Healthcare) was placed on the apical size of a 12-well transwell insert (Costar Co.) for 10 seconds. The absorption of the ASL and fluid meniscus was measured from the weight change of the filter paper. The weight of the filter paper was measured using an analysis scale (Sartorius BP61S; Sartorius AG, Gottingen, Germany).

The target in the next data set is T2, SLC26A7 (Homo sapiens, UniProt Q8TE54).
T2 construct: expressed in transfected cells; host or cells: CHO-K1
As to the kind of experiment: Cl^−/HCO3^− exchange in CHO-K1 cells expressing SLC26A7. Format: cell-based. The method, then:
as §1

Setting [2] is: post-treatment 10 mg/kg i.p. at 6 and 12 hours after LPS, 24 hours after LPS.
The mark [3] stands for this setting: pretreatment 10 mg/kg i.p. 1 hour before LPS, 48 hours after LPS, versus vehicle.

T1 sequence (Q7LBE3 whole entry, species assumed): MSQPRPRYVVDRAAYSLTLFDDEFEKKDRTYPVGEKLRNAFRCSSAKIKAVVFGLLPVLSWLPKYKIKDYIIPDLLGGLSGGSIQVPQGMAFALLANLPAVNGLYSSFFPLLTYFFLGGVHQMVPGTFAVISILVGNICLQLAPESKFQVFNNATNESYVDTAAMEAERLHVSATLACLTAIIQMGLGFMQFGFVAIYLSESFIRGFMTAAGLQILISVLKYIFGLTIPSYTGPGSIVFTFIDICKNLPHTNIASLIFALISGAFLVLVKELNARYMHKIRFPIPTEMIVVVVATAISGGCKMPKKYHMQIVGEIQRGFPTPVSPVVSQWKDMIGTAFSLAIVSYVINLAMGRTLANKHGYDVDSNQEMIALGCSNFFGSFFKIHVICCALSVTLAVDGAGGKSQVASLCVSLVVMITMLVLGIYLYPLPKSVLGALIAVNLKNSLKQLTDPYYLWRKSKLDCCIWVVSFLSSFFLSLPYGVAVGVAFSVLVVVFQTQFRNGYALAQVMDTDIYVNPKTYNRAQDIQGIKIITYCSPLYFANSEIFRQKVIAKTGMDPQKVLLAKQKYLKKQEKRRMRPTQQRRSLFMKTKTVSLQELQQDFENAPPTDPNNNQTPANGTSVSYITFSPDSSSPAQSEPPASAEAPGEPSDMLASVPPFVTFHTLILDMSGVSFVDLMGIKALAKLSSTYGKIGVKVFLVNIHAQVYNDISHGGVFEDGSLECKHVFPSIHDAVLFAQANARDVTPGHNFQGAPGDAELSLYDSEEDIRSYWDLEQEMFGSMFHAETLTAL
T2 sequence (Q8TE54 whole entry, species assumed): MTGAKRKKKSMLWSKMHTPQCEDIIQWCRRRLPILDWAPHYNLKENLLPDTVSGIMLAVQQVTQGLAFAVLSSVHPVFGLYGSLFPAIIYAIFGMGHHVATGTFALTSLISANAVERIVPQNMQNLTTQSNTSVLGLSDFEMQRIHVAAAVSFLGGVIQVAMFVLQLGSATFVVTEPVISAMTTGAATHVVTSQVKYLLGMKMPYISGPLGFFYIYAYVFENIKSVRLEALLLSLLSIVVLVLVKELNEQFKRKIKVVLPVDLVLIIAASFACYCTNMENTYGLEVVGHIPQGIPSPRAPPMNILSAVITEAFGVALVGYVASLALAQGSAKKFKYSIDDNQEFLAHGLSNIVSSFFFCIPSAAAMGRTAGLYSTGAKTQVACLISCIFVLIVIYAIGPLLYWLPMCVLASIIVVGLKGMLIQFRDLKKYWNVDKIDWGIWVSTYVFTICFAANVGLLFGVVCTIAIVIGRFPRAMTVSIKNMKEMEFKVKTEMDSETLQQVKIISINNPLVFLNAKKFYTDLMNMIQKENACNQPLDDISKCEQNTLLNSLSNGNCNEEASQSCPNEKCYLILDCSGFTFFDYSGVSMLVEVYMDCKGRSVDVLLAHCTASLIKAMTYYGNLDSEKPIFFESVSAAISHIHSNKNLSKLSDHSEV

Consider `CC(C)(C)c1ccc(C2=NC(=Cc3cccs3)C(=O)O2)cc1` [F56, 2-(4-(tert-butyl)phenyl)-4-(thiophen-2-ylmethylene)oxazol-5(4H)-one], for which, in data set [1] (F56 pretreated versus vehicle (DMSO) after LPS), the “level of pro-inflammatory cytokine in lung lysates (IL-1β, MIP-2, IL-6, TNF-α)” value is on record as “reduced”. Also, the “Phospho-Iκ expression in lung lysates” value in data set [1] (F56 treatment before LPS) is recorded as “significantly reduced”. In addition, in data set [1] (setting [2]), the BALF protein concentration result was “considerably reduced”, the “BALF total cell number” value was “considerably reduced” and the lung injury score entry is recorded as “considerably reduced”. In data set [1] (setting [3]), the “BAL protein concentration level” value is given as “reduced”, the “BAL total cell number” value was “reduced” and the lung injury score result is “significantly reduced”. In addition, the “effect on SLC26A9 Cl^−/HCO3^− exchange” value on SLC26A9 is “did not affect”. Also, the “total volume of ASL and fluid meniscus” value in the data set with HNE cells (IL-4-treated HNE cells expressing a mutant pendrin) is given as “not changed”. Moreover, the “total volume of ASL and fluid meniscus” value in the data set with HNE cells (IL-4 and IL-13-treated HNE cells expressing wild-type pendrin) is “hardly reduced”. Also, the “effect on SLC26A7 Cl^−/HCO3^− exchange” value at SLC26A7 was “did not affect”. The chemical stability result in the data set “Stability statements” is “chemically stable”.

(Values after patent US12691101B2, “Compound and method for preventing or treating of respiratory diseases comprising the same as an active ingredient” (YONSEI UNIVERSITY, UNIVERSITY - INDUSTRY FOUNDATION (UIF), priority 2019, dated 2026).)
